Results on one molecule are retold here after patent US8993282B2, “Carotenoid fermentation method” (JX Nippon Oil & Energy Corporation, priority 2008, dated 2015).

The subject of test [1] is Paracoccus carotinifaciens strain E-396 (FERM BP-4283). The experiment in a line: Amino acid supplementation (20 amino acids), test tube culture, carotenoid by HPLC and growth by OD610. The conditions noted are these: amino acid at 1.0 g/L. The class given is cell-based. On the procedure: (§1) In the examples, carotenoids were quantified by high performance liquid chromatography (HPLC) as follows.
(§2) Two columns of Wakosil-II 5 SIL-100 (φ4.6×250 mm) (Wako Pure Chemical Industries, Ltd., Japan) were connected to each other for use as a column. Elution was performed by flowing an n-hexane-tetrahydrofuran-methanol mixed solution (40:20:1), which was a mobile phase, at a flow rate of 1.0 mL/minute at a constant temperature around room temperature. The measurement was performed as follows. Samples were each dissolved in tetrahydrofuran and then diluted 100-fold with the mobile phase. Each dilution was injected in a volume of 20 μL. The column eluate was detected at a wavelength of 470 nm. As a reference for quantification, astaxanthin (SIGMA, Cat. No. A9335) was used. The astaxanthin concentration of the reference solution was determined using the following equation after measuring the absorbance (A) of the reference solution at 477 nm and the area percentage % (B) of the astaxanthin peak at the time of HPLC analysis under the above conditions. Astaxanthin concentration (mg/L)=A/2150×B×100
A medium of the following composition (sucrose 30 g/L, corn steep liquor 30 g/L, potassium dihydrogenphosphate 1.5 g/L, disodium hydrogenphosphate 12-hydrate 3.8 g/L, calcium chloride dihydrate 5.0 g/L, magnesium sulfate 7-hydrate 0.7 g/L, iron sulfate 7-hydrate 0.3 g/L, pH 7.2) was dispensed in 8 ml volumes into cotton-plugged test tubes having an inner diameter of 18 mm and sterilized in an autoclave at 121° C. for 15 minutes to prepare a test tube medium for seed culture.
Next, a medium of the following composition (glucose 30 g/L, filtered corn steep liquor 5 g/L, ammonium sulfate 1.5 g/L, potassium dihydrogenphosphate 1.5 g/L, disodium hydrogenphosphate 12-hydrate 3.8 g/L, calcium chloride dihydrate 5.0 g/L, magnesium sulfate 7-hydrate 0.7 g/L, iron sulfate 7-hydrate 0.6 g/L, ester-based defoaming agent 0.2 g/L) was dispensed in 8 ml volumes into cotton-plugged test tubes having an inner diameter of 18 mm (21 tubes in total).
The mediums in these test tubes were supplemented with 20 amino acids, glycine, alanine, valine, leucine, isoleucine, serine, threonine, aspartic acid, glutamic acid, asparagine, glutamine, lysine, arginine, cysteine, methionine, phenylalanine, tyrosine, tryptophan, histidine and proline, respectively, at 1.0 g/L. One of the tubes was supplemented with no amino acid as a control. Finally, the mediums in the tubes were adjusted to pH 7.1 with aqueous sodium hydroxide or aqueous sulfuric acid and then sterilized in an autoclave at 121° C. for 20 minutes.
Paracoccus carotinifaciens strain E-396 (FERM BP-4283) was inoculated into the test tube medium for seed culture and then cultured with shaking at 28° C. for 2 days at 300 spm. The resulting culture solution was then inoculated in 0.1 ml volumes into the 21 test tube media, respectively, and cultured with shaking at 28° C. for 4 days at 300 spm.
Each culture solution was measured for its carotenoid concentration by HPLC and microbial cell growth was determined by OD610 (absorbance at 610 nm).

The subject of test [2] is mutant Paracoccus sp. strain Y-1071. The experiment in a line: Glutamate supplementation, 5 L fermentation tank culture, carotenoid by HPLC. The class given is cell-based. On the procedure:
as §1, §2
A medium of the following composition (sucrose 20 g/L, filtered corn steep liquor 5 g/L, potassium dihydrogenphosphate 0.54 g/L, dipotassium hydrogenphosphate 12-hydrate 2.78 g/L, calcium chloride dihydrate 5.0 g/L, magnesium sulfate 7-hydrate 0.7 g/L, iron sulfate 7-hydrate 3.0 g/L, fatty acid-based defoaming agent 0.2 g/L, […]) was dispensed in 100 ml volumes into 500 mL cotton-plugged Erlenmeyer flasks and sterilized in an autoclave at 121° C. for 15 minutes to prepare a flask medium for seed culture in 2 flasks,
Next, a medium of the following composition (sucrose 40 g/L, corn steep liquor 30 g/L, ammonium sulfate 0.5 g/L, potassium dihydrogenphosphate 2.25 g/L, disodium hydrogenphosphate 12-hydrate 5.7 g/L, calcium chloride dihydrate 0.1 g/L, magnesium sulfate 7-hydrate 0.5 g/L, iron sulfate 7-hydrate 5 g/L, fatty acid-based defoaming agent 0.5 g/L) was dispensed in 2.0 L volumes into 5 L fermentation tanks (2 tanks in total). One of the fermentation tanks was supplemented with monosodium L-glutamate monohydrate to 50 mmol/L, while the other was supplemented with nothing as a control. These fermentation tanks were sterilized in an autoclave at 121° C. for 30 minutes,
A loopful of the mutant Paracoccus sp, strain Y-1071 selected in Example 3 was inoculated into the flask medium for seed culture and then cultured with rotary shaking at 28° C. for 2 days at 150 rpm. The resulting culture solution was then inoculated in 80 mL volumes into the individual fermentation tanks, followed by aerobic culture at 28° C. at an aeration volume of 1 vvm for 120 hours. […] during culture, the pH was continuously controlled with 15% aqueous ammonia. Glucose was added in an amount of 30 g on day 1, day 2 and day 3 of culture to prevent glucose depletion. The minimum number of agitation rotations was set to 100 rpm, and the number of agitation rotations was varied such that the dissolved oxygen concentration in the culture solution was maintained at 2 to 3 ppm. Bubbling was detected with a bubble sensor and suppressed by automatic addition of a fatty acid-based defoaming agent.
At the completion of culture, each culture solution was measured for its carotenoid concentration by HPLC.

The mark [3] stands for this setting: culture solution, 28° C. for 4 days.
Setting [4] is: Glutamic acid concentration 50 mmol/L, 120 hours.

Consider `N[C@@H](CCC(=O)O)C(=O)O` [Glutamic acid, glutamic acid], for which the “effect on the production of carotenoid pigments” value in test [1] (versus tube with no amino acid) is recorded as “stimulatory effect”. Besides, in test [1] (setting [3]), the Astaxanthin came out at 10.7 mg/L and the Total carotenoid turned out to be 28.2 mg/L. The same molecule had an OD610 in test [1] (microbial cell growth, absorbance at 610 nm, 28° C. for 4 days) of 17. In addition, the “produced carotenoid concentration compared to the sample without glutamic acid” value in test [2] (50 mmol/L) was “higher produced carotenoid concentration”. Besides, in test [2] (setting [4]), the 3-Hydroxyechinenone is listed as 10 mg/L, the Adonixanthin turned out to be 158 mg/L, the Astaxanthin amounted to 805 mg/L and the Asteroidenone is reported as 9 mg/L. For the same molecule, in test [2] (setting [4]), the Canthaxanthin is listed as 101 mg/L, the Echinenone was 62 mg/L, the Phoenicoxanthin was 217 mg/L and the “Total carotenoid” value is given as 1458 mg/L. In test [2] (setting [4]), this molecule gave a Zeaxanthin of 3 mg/L, a β-Carotene of 93 mg/L and a β-Cryptoxanthin of 0.5 mg/L.
